According to patent publication EP4782433A1, “METHOD FOR PRODUCING ARYLAMIDE DERIVATIVE” (CHUGAI SEIYAKU KABUSHIKI KAISHA, priority 2023, dated 2025):

What was measured:
[1] = Solubility of the additive or its sodium salt in a mixed solvent of tetrahydrofuran, acetone, tert-butyl methyl ether and water (supernatant analysed by HPLC); conditions: 25 °C, organic solvent or mixture, thermodynamic from solid
[2] = in water at 25°C; cited from earlier work
[3] = physchem; conditions: 25 °C, organic solvent or mixture, thermodynamic from solid

solubility ([3]; Solubility of additive) | solubility ([3]; Solubility of sodium salt of additive) | Compound | solubility [1] | solubility ([1]; Solubility of additive, 25°C, tetrahydrofuran:acetone:tert-butyl methyl ether 8:10:5 by volume, water 3% by mass, stirred for 6 hours or longer) | pKa [2]
 |  | Cc1cccc(O)c1 [m-Cresol] | ≥ 50 mM | ≥ 50 mM | 
≥ 70 mM | 40 mM | CC(=O)Nc1ccc(O)cc1 [Acetaminophen] |  |  | 9.78
